From patent US6159953A, “Anti-malarial composition and method of use” (Catholic University of America, priority 1992, dated 2000)
Where two headings read alike, the source gives them in different places.

Key:
Format in all cases: cell-based
[1] = system: Plasmodium falciparum, Sierra Leone clone D6; test: Inhibition of P. falciparum proliferation, [G-3H]-hypoxanthine incorporation, Sierra Leone clone D6 (chloroquine-sensitive); settings: for IC50: Plasmodium falciparum
Method: 3. Effects of pyrimidine analogues alone or in combination with normal pyrimidine bases or nucleosides or with amino acid derivatives can be tested in malaria parasite-infected erythrocytes. Varying concentrations of pyrimidine analogues in culture medium are added to individual wells of microtitre plates [Desjardins, R. E. et al., Antimicrob. […] Parasitemic erythrocytes in culture medium are added to each well. […] As an alternative to adding a radioactive precursor of nucleic acid biosynthesis, the end point for determining the effects of added drugs can be the incorporation of a radioactive amino acid, e.g., [U-^14 C]-isoleucine, into parasite protein.
Fluoropyrimidines, dispersed in 25 μl of culture medium, were added to individual wells of a 96-well microtitre plate. […] Finally, the incorporation of 0.5 μCi of [G-^3 H]hypoxanthine (1 Ci/mmol) into nucleic acids in each well was determined; this served as a measure of parasite proliferation. […] In a second method, the increase in parasitemia was determined directly by smearing infected erythrocytes on microscope slides, staining with Giemsa stain, and determining the ratio of infected to non-infected erythrocytes. In a third method, parasite-infected erythrocytes were incubated with [U-^14 C]-isoleucine (0.5 μCi; 0.33 Ci/mmol), and the amount of radioactivity incorporated into precipitable proteins determined.

[2] = system: IMR-90 human lung fibroblast cells; test: Toxicity to cultured IMR-90 cells, number of viable cells
Excerpt: (§1) 2. Effects of orotate analogues on cell viability and the ability to synthesize nucleic acids from radioactive precursors, and the rescuing effects of normal pyrimidine bases or nucleosides or amino acid derivatives such as histidinol, can be tested in human-derived tissue culture cell lines. Human HT-1080 human sarcoma cells [Rusheed, S., et al., Cancer, 33:1027-30 (1974)], human diploid IMR-90 cells [Nichols, W. W., et al., Science, 196:60-3 (1977)], human cervical […] HeLa S3 cells [Puck, T. T., et al., J. Exp. Med., 103:273-84 (1956)], HL-60 human myeloid leukemia cells [Collins, S. J., et al., Nature, 270:347-9 (1977)], and mouse leukemia L-1210 cells [Moore, G. E., J. Nat. […] The growth medium most suitable for each cell line can be determined by reference to the publications cited above: briefly, HT-1080 cells are maintained in Eagle's Minimal Essential Medium (EMEM) supplemented with 5% fetal bovine serum (FBS) and 2 mM L-glutamine; IMR-90 cells are grown in EMEM supplemented with 10% FBS, 10 mM Hepes buffer, 0.21% NaHCO3, and 2 mM L-glutamine. […]
(§2) Toxicity of pyrimidine analogues to cultured human cells is determined as follows. […] Thereafter, the number of cells in each well is determined. […] Cells that grow in suspension (e.g., HL-60 and L-1210 cells) are transferred to centrifuge tubes, pelleted at low speed, washed, and the viability determined as above. […]

[3] = system: L-1210 mouse lymphocytic leukemia cells; test: Toxicity to cultured L-1210 cells, number of viable cells
Excerpt: as §1, §2

In the case of `O=C(O)c1[nH]c(=O)[nH]c(=O)c1F` [5-fluoro-orotate], the IC50 ([1]; D6, Example 3, Table 2, hypoxanthine uptake) is reported as 2.2 nM, the IC50 ([1]; D6, Sierra Leone clone, Table 1, mean ± S.D. of five independent drug response curves) is reported as 5.8 ± 3.1 nM and the “times more active than chloroquine” value ([1]; chloroquine-sensitive Sierra Leone clone) is reported as 1.6 times. For the same compound, the IC50 ([2]; IMR-90, with 1 mM uridine, read-out: IC50 With 1 mM Uridine) was 2200 nM, the IC50 ([2]; IMR-90, without uridine, read-out: IC50 Without Uridine) was 1100 nM and the IC50 ([3]; L1210, L-1210, with 1 mM uridine, read-out: IC50 With 1 mM Uridine) was 5 µM. The IC50 ([3]; L1210, L-1210, without uridine, read-out: IC50 Without Uridine) was 2.8 µM.
